{Fl-O} = fluorescein attached through an O linker; {Fluorescein} = fluorescein label
Experiments:
Format in all cases: binding
DNA target 192 = assay: PNA/DNA hybridization detected by fluorescence polarization, complementary target
Description: (§1) A fluorescein-labeled peptide nucleic acid molecule 202 was used in hybridization experiments with the DNA targets 192 and 182. PNAs are generally commercially available from the Applied Biosystems Division of the Perkin-Elmer Corporation (Foster City, Calif.). The sequence of these molecules is illustrated below. In the case of the PNA molecule, the given sequence illustrates the analogous sequence of a DNA molecule. The sequences of the three molecules are as follows:
(§2) DNA sequence 192 contains 13 bases (shown in bold) that are fully complementary to the PNA probe 202, whereas 182 is a non-complementary oligonucleotide.
(§3) A solution containing 1 μM of PNA 202 in 50 mM HEPES pH 7.5 was mixed with either 5 μM of 192 or 5 μM of 182. The mixtures were left at room temperature for about 10 min. and then placed in the cuvette of a fluorimeter equipped to measure fluorescence polarization. The measurements were carried out using 490 nm for excitation and 520 nm for detection of fluorescence emission. The fluorescence polarization values were recorded first in the absence and then in the presence of poly-L-Lysine hydrobromide, having a molecular weight of approximately 70-100 kD (Sigma Chemicals). The poly-L-Lysine was added from a stock solution in water (approx. 440 μM). The final concentrations of the poly Lysine were 4.4 and 8.8 μM.

DNA target 182 = assay: PNA/DNA hybridization detected by fluorescence polarization, non-complementary target
Description: as §1, §2, §3

DNA 244 = assay: Single nucleotide substitution detection by fluorescence polarization of PNA probe; conditions: 250 nM probe, about 3 μM poly-L-Lysine, 50 mM HEPES pH 7.5, 100 mM NaCl
Description: The assay methods were employed to detect differential hybridization of a nucleic acid probe to a perfectly complementary target sequence and a target sequence incorporating a single base variation, e.g., a single nucleotide polymorphism (SNP). In particular, a fluoresceinated PNA probe having a sequence complementary to a subsequence of a target sequence was used to probe the target including the subsequence and a target in which an interior base of the subsequence was substituted for a different base.
The 5′ to 3′ sequences of the PNA probe (PNA 7637)(SEQ ID NO:4), the target DNA sequence (DNA 244) (SEQ. ID NO.5) and single base mismatch target DNA sequence (DNA 245) (SEQ. ID NO.6) were as follows:
The PNA probe 7637 was used at a final concentration of 250 nM, in a reaction volume of 400 μl. The buffer used was 50 mM HEPES pH 7.5, 100 mM NaCl. The solution also contained poly-L-Lysine at about 3 μM. One μl aliquots of the DNA targets 244 and 245 were added iteratively to the PNA solution and the fluorescence polarization (excitation 490, emission 520 nm) was recorded after the addition of each aliquot. The data from this experiment is illustrated in FIG. 22. […] As can also be seen, hybridization plateaued at approximately a […] of target sequence in the perfectly complementary example.

Row | Substance | polarization value (DNA target 192; 202 hybrid with complementary 192, in the absence of poly-L-Lysine) | polarization value (DNA target 192; 202 hybrid with complementary 192, in the presence of poly-L-Lysine) | polarization value (DNA target 182; 1 μM 202 with 5 μM non-complementary 182, without poly-L-Lysine) | polarization value (DNA target 182; 202 with non-complementary 182, in the presence of poly-L-Lysine) | fluorescence polarization, perfectly complementary target vs single base mismatch target (DNA 245) (DNA 244)
1 | 5′Fl-O-GTCAAATACTCCA (all peptide nucleic acid (PNA), 5' {Fl-O}) [compound 202, ID NO.1] | about 100 mP | 229 mP | 86 mP | 140 mnP | –
2 | Fluorescein-CCTGTAGCA (all peptide nucleic acid (PNA), 5' {Fluorescein}) [PNA probe 7637] | – | – | – | – | substantially higher levels of fluorescence polarization
